Experimental data taken from patent US12391648B2, “Pyridyloxy thioester derivative and preparation method therefor, herbicidal composition, and application” (Qingdao Kingagroot Chemical Compound Co., Ltd., priority 2018, dated 2025).

Key:
[1] = system: Indica rice; experiment: Post-emergence test experiment (Table 4), crop safety; type: in vivo; conditions: after 3 weeks
Description: (§1) The activity level standard of harmful plants destruction (i. e. growth inhibition rate) is as follows: • Level 5: the growth inhibition rate is greater than 85%; • Level 4: the growth inhibition rate is equal to or greater than 60% and less than 85%; • Level 3: the growth inhibition rate is equal to or greater than 40% and less than 60%; • Level 2: the growth inhibition rate is equal to or greater than 20% and less than 40%; • Level 1: the growth inhibition rate is equal to or greater than 5% and less than 20%; • Level 0: the growth inhibition rate is less than 5%;
(§2) The above described growth inhibition rate is fresh weight inhibition rate.
(§3) Post-emergence test experiment: Monocotyledonous and dicotyledonous weed seeds and main crop seeds (i. e. wheat, corn, rice, soybean, cotton, oilseed, millet and sorghum.) were put into a plastic pot loaded with soil. Then covered with 0.5-2 cm soil, the seeds were allowed to grow in good greenhouse environment. The test plants were treated at 2-3 leaf stage 2 weeks after sowing. The test compounds of the invention were dissolved with acetone respectively, then added with tween-80, and using 1.5 liters per hectare of an emulsible concentrate of methyl oleate as a synergist, and diluted by certain amount of water to certain concentration. The solution was sprayed to the plants with a sprayer. Then the plants were cultured for 3 weeks in the greenhouse, and the experiment result of weed controlling effect after 3 weeks was listed in tables 3-4.
(§4) […] Echinochloa crusgalli and Cyperus iria were collected from Ningxia Hui Autonomous Region of China, which had evolved resistance to ALS inhibiting herbicides. • Control compound A:

[2] = system: Japonica rice; experiment: as above; type: in vivo; conditions: after 3 weeks
Description: as §1, §2, §3, §4

[3] = system: ALS resistant Cyperus iria; experiment: Post-emergence test experiment (Table 4), weed control; type: in vivo; conditions: after 3 weeks
Description: as §1, §2, §3, §4

[4] = system: ALS resistant Echinochloa crusgalli; experiment: as above; type: in vivo; conditions: after 3 weeks
Description: as §1, §2, §3, §4

[5] = system: rice (japonica rice); experiment: Transplanted rice safety evaluation; type: in vivo; conditions: 1000 g/ha, transplanted 3-leaf stage japonica rice, treated 5 days after transplantation, 21 days after treatment
Description: as §1
(§5) Transplanted rice safety evaluation and weed control effect evaluation in rice field:
In addition, the rice field soil that loaded into the 1/1,000,000 ha pot was leveled to keep water storage at 3-4 cm depth. The 3-leaf stage rice (japonica rice) was transplanted at 3 cm of transplanting depth the next day. The compound of the present invention was treated by the same way after 5 days of transplantation.
(§6) The fertility condition of Monochoria vaginalis 14 days and rice 21 days after the treatment of the compound of the invention with the naked eye.

[6] = system: Monochoria vaginalis; experiment: Weed control effect evaluation in rice field; type: in vivo; conditions: 1000 g/ha, paddy water application at 0.5 leaf stage, 14 days after treatment, weeds resistant to pyrazosulfuron-ethyl and penoxsulam
Description: as §1, §5
Rice field soil was loaded into a 1/1,000,000 ha pot. The seeds of Monochoria vaginalis were sowed and gently covered with soil, then left to stand still in greenhouse in the state of 0.5-1 cm of water storage. It was kept at 3-4 cm of water storage thereafter. The weeds were treated by dripping the WP or SC water diluents prepared according to the common preparation method of the compounds of the present invention with pipette homogeneously to achieve specified effective amount when Monochoria vaginalis reached 0. 5 leaf stage.
as §6
Note: The seeds of Monochoria vaginalis were collected from Heilongjing Province of China.

[7] = system: Abutilon theophrasti; experiment: Post-emergence test experiment (Table 3, 1000 g/ha); type: in vivo; conditions: post-emergence spray, after 3 weeks, fresh weight inhibition
Outline: (§7)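 Weed seeds sown in soil-filled pots in greenhouse, sprayed at 2-3 leaf stage (2 weeks after sowing) with compound in acetone/tween-80 plus methyl oleate emulsible concentrate (1.5 L/ha) diluted in water. Fresh-weight growth inhibition scored after 3 weeks on 0-5 scale (5: >85%, 0: <5%).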

[8] = system: Digitaria sanguinalis; experiment: as above; type: in vivo; conditions: post-emergence spray, after 3 weeks, fresh weight inhibition
Outline: as §7

[9] = system: Galium spurium; experiment: as above; type: in vivo; conditions: post-emergence spray, after 3 weeks, fresh weight inhibition
Outline: as §7

[10] = system: Leptochloa chinensis; experiment: as above; type: in vivo; conditions: post-emergence spray, after 3 weeks, fresh weight inhibition
Outline: as §7

[11] = system: Monochoria vaginalis; experiment: as above; type: in vivo; conditions: post-emergence spray, after 3 weeks, fresh weight inhibition
Outline: as §7

[12] = system: Setaria viridis; experiment: as above; type: in vivo; conditions: post-emergence spray, after 3 weeks, fresh weight inhibition
Outline: as §7

[13] = system: rice; conditions: known compound; cited from earlier work
[14] = 600 g/ha active ingredient, plus water 450 kg/ha

| Compound | Indica rice, activity level (growth inhibition rate) [1, 14] | Japonica rice, activity level (growth inhibition rate) [2, 14] | ALS resistant Cyperus iria, activity level (growth inhibition rate) [3, 14] | ALS resistant Echinochloa crusgalli, activity level (growth inhibition rate) [4, 14] | Rice, activity standard level 0-5 (safety) [5] | Monochoria Vaginalis, activity standard level 0-5 [6] | Activity level (growth inhibition rate) Abutilon theophrasti [7] | Activity level (growth inhibition rate) Digitaria sanguinalis [8] | Activity level (growth inhibition rate) Galium spurium [9] | Activity level (growth inhibition rate) Leptochloa chinensis [10] | Activity level (growth inhibition rate) Monochoria Vaginalis [11] | Activity level (growth inhibition rate) Setaria viridis [12] | Indica rice, activity level (growth inhibition rate) ([1]; 300 g/ha) | Japonica rice, activity level (growth inhibition rate) ([2]; 300 g/ha) | ALS resistant Cyperus iria, activity level (growth inhibition rate) ([3]; 300 g/ha) | ALS resistant Echinochloa crusgalli, activity level (growth inhibition rate) ([4]; 300 g/ha) | safety and selectivity in rice [13] |
| --- | --- | --- | --- | --- | --- | --- | --- | --- | --- | --- | --- | --- | --- | --- | --- | --- | --- |
| CCCCOCCSC(=O)C(C)Oc1nc(F)c(Cl)c(N)c1Cl (stereo not drawn) [Compound 87] | 0 (Level 0: the growth inhibition rate is less than 5%) | 0 (Level 0: the growth inhibition rate is less than 5%) | 5 (Level 5: the growth inhibition rate is greater than 85%) | 5 (Level 5: the growth inhibition rate is greater than 85%) | 0 (Level 0: the growth inhibition rate is less than 5%) | 5 (Level 5: the growth inhibition rate is greater than 85%) | 5 (Level 5: the growth inhibition rate is greater than 85%) | 5 (Level 5: the growth inhibition rate is greater than 85%) | 5 (Level 5: the growth inhibition rate is greater than 85%) | 5 (Level 5: the growth inhibition rate is greater than 85%) | 5 (Level 5: the growth inhibition rate is greater than 85%) | 5 (Level 5: the growth inhibition rate is greater than 85%) |  |  |  |  |  |
| COCCCSC(=O)C(C)Oc1nc(F)c(Cl)c(N)c1Cl (stereo not drawn) [Compound 88] | 0 (Level 0: the growth inhibition rate is less than 5%) | 0 (Level 0: the growth inhibition rate is less than 5%) | 5 (Level 5: the growth inhibition rate is greater than 85%) | 5 (Level 5: the growth inhibition rate is greater than 85%) | 0 (Level 0: the growth inhibition rate is less than 5%) | 5 (Level 5: the growth inhibition rate is greater than 85%) | 5 (Level 5: the growth inhibition rate is greater than 85%) | 5 (Level 5: the growth inhibition rate is greater than 85%) | 5 (Level 5: the growth inhibition rate is greater than 85%) | 5 (Level 5: the growth inhibition rate is greater than 85%) | 5 (Level 5: the growth inhibition rate is greater than 85%) | 5 (Level 5: the growth inhibition rate is greater than 85%) |  |  |  |  |  |
| CC(C)=NOCCSC(=O)C(C)Oc1nc(F)c(Cl)c(N)c1Cl (stereo not drawn) [Compound 97] | 0 (Level 0: the growth inhibition rate is less than 5%) | 0 (Level 0: the growth inhibition rate is less than 5%) | 5 (Level 5: the growth inhibition rate is greater than 85%) | 5 (Level 5: the growth inhibition rate is greater than 85%) | 0 (Level 0: the growth inhibition rate is less than 5%) | 5 (Level 5: the growth inhibition rate is greater than 85%) | 5 (Level 5: the growth inhibition rate is greater than 85%) | 5 (Level 5: the growth inhibition rate is greater than 85%) | 5 (Level 5: the growth inhibition rate is greater than 85%) | 5 (Level 5: the growth inhibition rate is greater than 85%) | 5 (Level 5: the growth inhibition rate is greater than 85%) | 5 (Level 5: the growth inhibition rate is greater than 85%) |  |  |  |  |  |
| COC(=O)OC(C)SC(=O)C(C)Oc1nc(F)c(Cl)c(N)c1Cl (stereo not drawn) [Compound 98] | 0 (Level 0: the growth inhibition rate is less than 5%) | 0 (Level 0: the growth inhibition rate is less than 5%) | 5 (Level 5: the growth inhibition rate is greater than 85%) | 5 (Level 5: the growth inhibition rate is greater than 85%) | 0 (Level 0: the growth inhibition rate is less than 5%) | 5 (Level 5: the growth inhibition rate is greater than 85%) | 5 (Level 5: the growth inhibition rate is greater than 85%) | 5 (Level 5: the growth inhibition rate is greater than 85%) | 5 (Level 5: the growth inhibition rate is greater than 85%) | 5 (Level 5: the growth inhibition rate is greater than 85%) | 5 (Level 5: the growth inhibition rate is greater than 85%) | 5 (Level 5: the growth inhibition rate is greater than 85%) |  |  |  |  |  |
| CSC(=O)C(C)Oc1nc(F)c(Cl)c(NCc2ccco2)c1Cl (stereo not drawn) [Compound 130] | 0 (Level 0: the growth inhibition rate is less than 5%) | 0 (Level 0: the growth inhibition rate is less than 5%) | 5 (Level 5: the growth inhibition rate is greater than 85%) | 5 (Level 5: the growth inhibition rate is greater than 85%) | 0 (Level 0: the growth inhibition rate is less than 5%) | 5 (Level 5: the growth inhibition rate is greater than 85%) | 5 (Level 5: the growth inhibition rate is greater than 85%) | 5 (Level 5: the growth inhibition rate is greater than 85%) | 5 (Level 5: the growth inhibition rate is greater than 85%) | 5 (Level 5: the growth inhibition rate is greater than 85%) | 5 (Level 5: the growth inhibition rate is greater than 85%) | 5 (Level 5: the growth inhibition rate is greater than 85%) |  |  |  |  |  |
| CC(Oc1nc(F)c(Cl)c(N)c1Cl)C(=O)O (stereo not drawn) [Control compound A, reference compound] | 3 (Level 3: the growth inhibition rate is equal to or greater than 40% and less than 60%) | 3 (Level 3: the growth inhibition rate is equal to or greater than 40% and less than 60%) | 5 (Level 5: the growth inhibition rate is greater than 85%) | 5 (Level 5: the growth inhibition rate is greater than 85%) |  |  |  |  |  |  |  |  | 2 (Level 2: the growth inhibition rate is equal to or greater than 20% and less than 40%) | 3 (Level 3: the growth inhibition rate is equal to or greater than 40% and less than 60%) | 4 (Level 4: the growth inhibition rate is equal to or greater than 60% and less than 85%) | 4 (Level 4: the growth inhibition rate is equal to or greater than 60% and less than 85%) | poor safety and low selectivity in rice |
